Reference: paper PMC9694146, “Novel [1,2,4]triazolo[3,4-b][1,3,4]thiadiazine and [1,2,4]triazolo[3,4-b][1,3,4]thiadiazepine Derivatives: Synthesis, Anti-Viral In Vitro Study and Target Validation Activity” (Molecules, 2022)

system: MDCK cells (ATCC CCL-34); experiment: Cytotoxicity, methyltetrazolium (MTT) assay on MDCK cell monolayer; format: cell-based; conditions: 300 μg/mL, 1100–1300 μM
Protocol: (§1) The cytotoxic properties of the compounds were investigated in a separate series of experiments. A series of threefold dilutions (300–3.7 µg/mL) were prepared from the test compounds, after which they were added to the wells of plates with a monolayer of MDCK cells (ATCC CCL-34). […] The plates with cells were incubated for 2 h. The precipitate was dissolved in DMSO (0.1 mL per well). The optical density in the wells was measured on a Thermo Multiskan FC plate photometer (Thermo Fisher Scientific, USA) at a wavelength of 540 nm. Based on the obtained data, CC50 values (the concentration of the compound, leading to a decrease in optical density by half, compared to wells without the addition of compounds) were calculated.

For `CCCc1nnc2n1N=C/C(=C/c1ccccc1)S2` [Compound 6d, (Z)-7-benzylidene-3-propyl-7H-[1,2,4]triazolo[3,4-b][1,3,4]thiadiazine], the “cytotoxicity at the highest concentration used” value was “did not demonstrate cytotoxicity”.

same assay, conditions: 72 h, MTT

In the case of `CCc1nnc2n1N=CC=C(c1ccccc1)S2` [Compound 7c, 3-ethyl-8-phenyl-[1,2,4]triazolo[3,4-b][1,3,4]thiadiazepine], the “CC50, cytotoxic concentration; the concentration resulting in 50% death of cells” value is reported as “one-digit micromoles”.

system: not listed separately; experiment: as above; format: cell-based; conditions: dog; MDCK cells, 72 h, MTT; read-out: CC50, cytotoxic concentration; the concentration resulting in 50% death of cells
Protocol: as §1

`Cc1nnc2n1NC/C(=C/c1ccccc1)S2` [Compound 8b, (Z)-7-benzylidene-3-methyl-6,7-dihydro-5H-[1,2,4]triazolo[3,4-b][1,3,4]thiadiazine] and `CCc1nnc2n1NC/C(=C/c1ccccc1)S2` [Compound 8c, (Z)-7-benzylidene-3-ethyl-6,7-dihydro-5H-[1,2,4]triazolo[3,4-b][1,3,4]thiadiazine] cannot be ordered by CC50 at 72 h: > 1200 µM for the first, > 1100 µM for the second.

`CC(N)C12CC3CC(CC(C3)C1)C2` (centres unmarked) [Rimantadine, reference compound] and `CCC(CC)O[C@@H]1C=C(C(=O)O)C[C@H](N)[C@H]1NC(C)=O` [Oseltamivir carboxylate, reference compound] cannot be ordered by CC50 at 72 h: 312 ± 22.8 µM for the first, > 100 µM for the second.

`CCCc1nnc2n1NC/C(=C/c1ccccc1)S2` [Compound 8d, (Z)-7-benzylidene-3-propyl-6,7-dihydro-5H-[1,2,4]triazolo[3,4-b][1,3,4]thiadiazine] and `CCCc1nnc2n1N=C/C(=C/c1ccccc1)S2` [Compound 6d, (Z)-7-benzylidene-3-propyl-7H-[1,2,4]triazolo[3,4-b][1,3,4]thiadiazine] cannot be ordered by CC50 at 72 h: > 1100 µM for the first, > 1100 µM for the second.

`C(=C1\CNn2cnnc2S1)/c1ccccc1` [Compound 8a, (Z)-7-benzylidene-6,7-dihydro-5H-[1,2,4]triazolo[3,4-b][1,3,4]thiadiazine] and `C1=C(c2ccccc2)Sc2nncn2NC1` [Compound 10a, 8-phenyl-5,6-dihydro-[1,2,4]triazolo[3,4-b][1,3,4]thiadiazepine] cannot be ordered by CC50 at 72 h: > 1300 µM for the first, > 1300 µM for the second.

Compared with `CCc1nnc(S)n1NCC#Cc1ccccc1` [Compound 2c, 5-ethyl-4-((3-phenylprop-2-yn-1-yl)amino)-4H-1,2,4-triazole-3-thiol], `CCCc1nnc(S)n1NCC#Cc1ccccc1` [Compound 2d, 5-propyl-4-((3-phenylprop-2-yn-1-yl)amino)-4H-1,2,4-triazole-3-thiol] is 3.5-fold lower in CC50 at 72 h: 487 ± 22.5 µM for the first, 138 ± 12 µM for the second.

Going from `CCc1nnc2n1N=C/C(=C/c1ccccc1)S2` [Compound 6c, (Z)-7-benzylidene-3-ethyl-7H-[1,2,4]triazolo[3,4-b][1,3,4]thiadiazine] to `Cc1nnc2n1N=C/C(=C/c1ccccc1)S2` [Compound 6b, (Z)-7-benzylidene-3-methyl-7H-[1,2,4]triazolo[3,4-b][1,3,4]thiadiazine], the CC50 at 72 h falls from 979 ± 55.1 µM to 433 ± 37.6 µM (2.3-fold).

`Sc1nncn1NCC#Cc1ccccc1` [Compound 2a, 4-((3-phenylprop-2-yn-1-yl)amino)-4H-1,2,4-triazole-3-thiol] and `Cc1nnc(S)n1NCC#Cc1ccccc1` [Compound 2b, 5-methyl-4-((3-phenylprop-2-yn-1-yl)amino)-4H-1,2,4-triazole-3-thiol] cannot be ordered by CC50 at 72 h: > 1300 µM for the first, > 1200 µM for the second.

Going from `CCc1nnc2n1N=CC=C(c1ccccc1)S2` [Compound 7c, 3-ethyl-8-phenyl-[1,2,4]triazolo[3,4-b][1,3,4]thiadiazepine] to `CCc1nnc2n1NCC=C(c1ccccc1)S2` [Compound 10c, 3-ethyl-8-phenyl-5,6-dihydro-[1,2,4]triazolo[3,4-b][1,3,4]thiadiazepine], the CC50 at 72 h rises from 6.1 ± 0.3 µM to 972 ± 66.4 µM (160-fold).

Going from `Cc1nnc2n1NCC=C(c1ccccc1)S2` [Compound 10b, 3-methyl-8-phenyl-5,6-dihydro-[1,2,4]triazolo[3,4-b][1,3,4]thiadiazepine] to `C1=Nn2cnnc2SC(c2ccccc2)=C1` [Compound 7a, 8-phenyl-[1,2,4]triazolo[3,4-b][1,3,4]thiadiazepine], the CC50 at 72 h falls from > 1100 µM to 42.9 ± 3.2 µM.

First: C1=Nn2cnnc2S/C1=C\c1ccccc1 [Compound 6a, (Z)-7-benzylidene-7H-[1,2,4]triazolo[3,4-b][1,3,4]thiadiazine]
Second: Sc1nncn1N=CC#Cc1ccccc1 [Compound 1a, 4-((3-phenylprop-2-yn-1-ylidene)amino)-4H-1,2,4-triazole-3-thiol]
The CC50 at 72 h of the first is 4.3-fold higher: 578 ± 32.3 µM for the first, 134 ± 11 µM for the second.

`Cc1nnc(S)n1N=CC#Cc1ccccc1` [Compound 1b, 5-methyl-4-((3-phenylprop-2-yn-1-ylidene)amino)-4H-1,2,4-triazole-3-thiol] and `CCc1nnc(S)n1N=CC#Cc1ccccc1` [Compound 1c, 5-ethyl-4-((3-phenylprop-2-yn-1-ylidene)amino)-4H-1,2,4-triazole-3-thiol] are within error of each other in CC50 at 72 h: 126 ± 11.3 µM for the first, 119 ± 9.6 µM for the second.

system: not given; experiment: not given; conditions: not given

First: CCCc1nnc2n1N=CC=C(c1ccccc1)S2
Second: CCCc1nnc2n1NCC=C(c1ccccc1)S2
The melting point of the first is lower: 88 to 89 °C for the first, 103 to 104 °C for the second.
